Activity calls are given as the source filed them. No rule for the calls is given here.
System: GENE-TOX genotoxicity assays, various organisms and cells
Test: GENE-TOX mutagenicity studies
Conditions: for call: Assay Type: In vivo carcinogenicity studies, Assay Code: CCG+
[1] = Species/Cell Type: Drosophila melanogaster, Assay Type: Sex-linked recessive lethal gene mutation, Assay Code: SRLT, Evaluation Type: Evaluation A (Pre-1980)
[2] = Species/Cell Type: Saccharomyces cerevisiae, Assay Type: Mitotic recombination or gene conversion, Assay Code: YEH+, Evaluation Type: Evaluation A (Pre-1980)
[3] = Species/Cell Type: Salmonella typhimurium (one or more of the five standard strains: TA98, TA100, TA1535, TA1537, and TA1538), Assay Type: Histidine reverse gene mutation, Ames assay, Assay Code: SALT, Evaluation Type: Evaluation A (Pre-1980)
[4] = Species/Cell Type: Salmonella typhimurium (one or more of the five standard strains: TA98, TA100, TA1535, TA1537, and TA1538), Assay Type: Histidine reverse gene mutation, Ames assay, Assay Code: SAL-, Evaluation Type: Evaluation A (Pre-1980)
[5] = Species/Cell Type: Nonhuman, Assay Type: Sister-chromatid exchange (SCE) in vitro, Assay Code: SC2+D, Dose Response: With dose response, Evaluation Type: Evaluation B (Post-1980)
[6] = Species/Cell Type: Salmonella typhimurium (one or more of the five standard strains: TA98, TA100, TA1535, TA1537, and TA1538), Assay Type: Histidine reverse gene mutation, Ames assay, Assay Code: SAL+*, Activation: With metabolic activation, Evaluation Type: Evaluation A (Pre-1980)
[7] = Species/Cell Type: Mammalian polychromatic erythrocytes, Assay Type: Micronucleus test, chromosome aberrations, Assay Code: MNTT, Evaluation Type: Evaluation B (Post-1980)
[8] = Species/Cell Type: Nonhuman, Evaluation Type: Evaluation A (Pre-1980)
[9] = Species/Cell Type: Human, Sex: Male, Assay Type: Sperm morphology, Assay Code: SPH+, Evaluation Type: Evaluation A (Pre-1980)
[10] = Species/Cell Type: Rodents, Sex: Male, Assay Type: Dominant lethal test, Assay Code: DLT-, Evaluation Type: Evaluation A (Pre-1980)
[11] = Species/Cell Type: Mouse, Sex: Male, Assay Type: Sperm morphology, Assay Code: SPI-, Evaluation Type: Evaluation A (Pre-1980)
[12] = Species/Cell Type: Salmonella typhimurium, Assay Type: Forward and reverse gene mutation, host-mediated assay, Assay Code: HMA+, Evaluation Type: Evaluation A (Pre-1980)
[13] = Species/Cell Type: Salmonella typhimurium (one or more of the five standard strains: TA98, TA100, TA1535, TA1537, and TA1538), Assay Type: Histidine reverse gene mutation, Ames assay, Assay Code: SAL+, Evaluation Type: Evaluation A (Pre-1980)

COP(=S)(OC)SCn1nnc2ccccc2c1=O
mutagenic call (Species/Cell Type: Bacillus subtilis (H17 vs M45), Assay Type: Rec-assay, spot test, DNA effects (bacterial DNA repair), Assay Code: REWT, Evaluation Type: Evaluation A (Pre-1980)): no conclusion
mutagenic call [1]: no conclusion
mutagenic call (Species/Cell Type: Escherichia coli WP2 UVRA, Assay Type: Tryptophan reverse gene mutation, Assay Code: WPU-*, Activation: With metabolic activation, Evaluation Type: Evaluation A (Pre-1980)): inactive; negative
mutagenic call (Species/Cell Type: Escherichia coli polA (W3119 vs P3478), Assay Type: Rec-assay, DNA effects (bacterial DNA repair), Assay Code: RE1T, Evaluation Type: Evaluation A (Pre-1980)): no conclusion
mutagenic call (Species/Cell Type: Human diploid fibroblasts, Assay Type: Unscheduled DNA synthesis (UDS) in vitro, DNA effects, Assay Code: UDH-, Evaluation Type: Evaluation A (Pre-1980)): inactive; negative
mutagenic call (Species/Cell Type: Nonhuman, Assay Type: Sister-chromatid exchange (SCE) in vitro, Assay Code: SC2-, Evaluation Type: Evaluation B (Post-1980)): inactive; negative
mutagenic call [2]: active; positive
mutagenic call [3]: no conclusion

CCN(N=O)C(C)(C)C
mutagenic call [1]: no conclusion

Clc1cccc(Br)c1
mutagenic call [4]: inactive; negative

Cc1c2ccccc2cc2ccc3ccccc3c12
mutagenic call [5]: active; positive
mutagenic call [6]: active; positive

CC1C(C)N(N=O)C(C)C(C)N1N=O (stereo not given)
mutagenic call [3]: no conclusion

COCCc1ccc(OCC(O)CNC(C)C)cc1 (stereo not given)
mutagenic call [7]: no conclusion

CC1CC(=O)O1 (stereo not given)
call [8]: active; positive

Cc1cc(Cl)cc2c1C(=O)/C(=C1\Sc3cc(Cl)cc(C)c3C1=O)S2
mutagenic call [4]: inactive; negative

ClC1=CC(c2cc(Cl)ccc2Cl)=C(Cl)[C@H]2O[C@@H]12
mutagenic call [3]: no conclusion

CC(CN1CC(=O)NC(=O)C1)N1CC(=O)NC(=O)C1 (stereo not given)
mutagenic call [4]: inactive; negative

O=NN(CCCCO)c1ccccc1
mutagenic call [3]: no conclusion

Cc1cc2nc3ccc(=[N+](C)C)cc-3sc2cc1N
mutagenic call (Species/Cell Type: Bacillus subtilis (H17 vs M45T), Assay Type: Rec-assay, spot test, DNA effects (bacterial DNA repair), Assay Code: REXT, Evaluation Type: Evaluation A (Pre-1980)): no conclusion
mutagenic call (Species/Cell Type: Saccharomyces cerevisiae, Assay Type: Mitotic recombination or gene conversion, Assay Code: YECT, Evaluation Type: Evaluation A (Pre-1980)): no conclusion

CC(=O)O[C@]1(C(C)=O)CC[C@H]2[C@@H]3C=C(Cl)C4=CC(=O)[C@@H]5C[C@@H]5[C@]4(C)[C@H]3CC[C@@]21C
mutagenic call [9]: active; positive

CCOP(=O)(OCC)Oc1ccc([N+](=O)[O-])cc1
mutagenic call [5]: active; positive

Cc1cc(Cl)ccc1OC(C)C(=O)O (stereo not given)
mutagenic call (Species/Cell Type: Saccharomyces cerevisiae, Assay Type: Mitotic recombination or gene conversion, Assay Code: YEC+, Evaluation Type: Evaluation A (Pre-1980)): active; positive

CC(=O)[O-].CC(=O)[O-].CC(=O)[O-].CC(=O)[O-].[Pb+2]
call [8]: active; positive

CCCCCCCCCC(=O)OCCCN1CCN(C2Cc3ccccc3Sc3ccc(SC)cc32)CC1 (stereo not given)
mutagenic call [10]: inactive; negative

NCC(=O)CCC(=O)O
mutagenic call [10]: inactive; negative

O=NN1CCOCC1
mutagenic call (Species/Cell Type: Chinese hamster lung (V79) cells, Assay Type: Forward gene mutation at the HPRT or ouabain locus, Assay Code: V79+, Evaluation Type: Evaluation A (Pre-1980)): active; positive
mutagenic call (Species/Cell Type: Drosophila melanogaster, Assay Type: Sex-linked recessive lethal gene mutation, Assay Code: SRL+, Evaluation Type: Evaluation A (Pre-1980)): active; positive
mutagenic call (Species/Cell Type: Drosophila melanogaster, Sex: Male, Assay Type: Heritable translocation test, chromosome aberrations, Assay Code: DHTT, Evaluation Type: Evaluation A (Pre-1980)): no conclusion
mutagenic call (Species/Cell Type: Human lymphocytes or leukocytes, Assay Type: Chromosome aberrations in vivo, Assay Code: CY8+, Evaluation Type: Evaluation A (Pre-1980)): active; positive
mutagenic call (Species/Cell Type: Mammalian polychromatic erythrocytes, Assay Type: Micronucleus test, chromosome aberrations, Assay Code: MNT+, Evaluation Type: Evaluation A (Pre-1980)): active; positive
mutagenic call [11]: inactive; negative
mutagenic call (Species/Cell Type: Nonhuman lymphocytes or leukocytes, Assay Type: Chromosome aberrations in vivo, Assay Code: CY%+, Evaluation Type: Evaluation A (Pre-1980)): active; positive
call [8]: active; positive
mutagenic call (Species/Cell Type: Nonhuman, Assay Type: Sister-chromatid exchange (SCE) in vitro, Assay Code: SC2+D*, Activation: With metabolic activation, Dose Response: With dose response, Evaluation Type: Evaluation B (Post-1980)): active; positive
mutagenic call (Species/Cell Type: Nonhuman, Assay Type: Sister-chromatid exchange (SCE) in vivo, Assay Code: SC3+D, Dose Response: With dose response, Evaluation Type: Evaluation B (Post-1980)): active; positive
mutagenic call (Species/Cell Type: Rat primary hepatocytes, Assay Type: Unscheduled DNA synthesis (UDS) in vitro, DNA effects, Assay Code: UDP+, Evaluation Type: Evaluation A (Pre-1980)): active; positive
mutagenic call [3]: no conclusion
mutagenic call [12]: active; positive

O=[N+]([O-])c1ccc2ncccc2c1
mutagenic call [13]: active; positive

COc1cccc2oc3c4c(cc(OC)c3c(=O)c12)O[C@H]1OC=C[C@@H]41
mutagenic call [3]: no conclusion

O=C(NCCCCCCCCNC(=O)C(Cl)Cl)C(Cl)Cl
mutagenic call [9]: active; positive

O=NN1CCCC(O)C1 (stereo not given)
mutagenic call [6]: active; positive

CN(C)/C=N/c1nnc(/C=C/c2ccc([N+](=O)[O-])o2)o1
call [8]: active; positive
mutagenic call [13]: active; positive

ONc1ccc2ccccc2c1
mutagenic call (Species/Cell Type: Chinese hamster ovary (CHO) cells, Assay Type: Forward gene mutation at the HPRT locus, Assay Code: CHO+, Evaluation Type: Evaluation B (Post-1980)): active; positive
mutagenic call (Species/Cell Type: Escherichia coli polA (W3119 vs P3478), Assay Type: Rec-assay, DNA effects (bacterial DNA repair), Assay Code: RE1+, Evaluation Type: Evaluation A (Pre-1980)): active; positive
mutagenic call (Species/Cell Type: Neurospora crassa, Assay Type: Forward gene mutation, Assay Code: NEF+, Evaluation Type: Evaluation A (Pre-1980)): active; positive
call [8]: active; positive
mutagenic call [2]: active; positive
mutagenic call [13]: active; positive
mutagenic call [12]: active; positive

CN(C)Nc1nc(-c2ccc([N+](=O)[O-])o2)cs1
mutagenic call (Species/Cell Type: Escherichia coli WP2, Assay Type: Tryptophan reverse gene mutation, Assay Code: WP2+, Evaluation Type: Evaluation A (Pre-1980)): active; positive
mutagenic call (Species/Cell Type: Escherichia coli WP2 UVRA, Assay Type: Tryptophan reverse gene mutation, Assay Code: WPU-, Evaluation Type: Evaluation A (Pre-1980)): inactive; negative
mutagenic call [13]: active; positive

COC(C)[C@](O)(C(=O)O)C(C)C (stereo not given in full)
mutagenic call [1]: no conclusion

CC[C@@H](CO)NC(=O)[C@@H]1C=C2c3cccc4c3c(cn4C)C[C@H]2N(C)C1
mutagenic call (Species/Cell Type: Rodents, Sex: Male, Assay Type: Dominant lethal test, Assay Code: DLT+, Evaluation Type: Evaluation A (Pre-1980)): active; positive

C[CH2][Hg][Cl]
mutagenic call [7]: no conclusion

FC(F)OC(Cl)C(F)(F)F (stereo not given)
mutagenic call [11]: inactive; negative
mutagenic call (Species/Cell Type: Nonhuman, Assay Type: Sister-chromatid exchange (SCE) in vitro, Assay Code: SC2T, Evaluation Type: Evaluation B (Post-1980)): no conclusion
mutagenic call [3]: no conclusion

CN=C1CN(O)C(c2ccccc2)=c2cc(Cl)ccc2=N1
mutagenic call (Species/Cell Type: Mammalian polychromatic erythrocytes, Assay Type: Micronucleus test, chromosome aberrations, Assay Code: MNT+, Evaluation Type: Evaluation B (Post-1980)): active; positive
mutagenic call (Species/Cell Type: Saccharomyces cerevisiae, Assay Type: Mitotic recombination or gene conversion, Assay Code: YEC-*, Activation: With metabolic activation, Evaluation Type: Evaluation A (Pre-1980)): inactive; negative
mutagenic call [3]: no conclusion
mutagenic call (Species/Cell Type: Salmonella typhimurium, Assay Type: Forward and reverse gene mutation, host-mediated assay, Assay Code: HMAT, Evaluation Type: Evaluation A (Pre-1980)): no conclusion

[N-]=[N+]=Nc1ccc2c(c1)Cc1ccccc1-2
mutagenic call (Species/Cell Type: Mouse (C3H/10T1/2) cells, Assay Type: Cell transformation, Assay Code: CTH-, Evaluation Type: Evaluation A (Pre-1980)): inactive; negative

[S]=[Cd]
mutagenic call (Species/Cell Type: Human lymphocytes or leukocytes, Assay Type: Chromosome aberrations in vitro, Assay Code: CY7+, Evaluation Type: Evaluation A (Pre-1980)): active; positive
call [8]: active; positive

Nc1ccc2c(ccc3ccccc32)n1
mutagenic call [6]: active; positive

Reference: PubChem BioAssay AID1259408 (Genetic Toxicology Data Bank (GENE-TOX), 2018)
